For six compounds, IC50 results are on record in ChEMBL document CHEMBL1147860, “ABC synthesis and antitumor activity of a series of Annonaceous acetogenin analogs with a threo, trans, threo, trans, threo-bis-tetrahydrofuran core unit” (Bioorg Med Chem Lett, 2007).

The term IC50 denotes the point on the concentration scale where inhibition reaches its midpoint.

In this assay the test system is HCT-116. Nature of the assay: Cytotoxicity against HCT116 cells. In kind it is functional, cell-based. To be noted: Homo sapiens.
Regarding `C[C@H]1C=C(C[C@H](O)CCCCCCCCCC[C@@H](O)[C@H]2CC[C@H]([C@H]3CC[C@H]([C@H](O)CCCCCCO)O3)O2)C(=O)O1`, it took 3.8 nM to reach half-maximal inhibition (IC50). The result for `C[C@H]1C=C(C[C@H](O)CCCCCCCCCC[C@@H](O)[C@H]2CC[C@H]([C@H]3CC[C@H]([C@H](O)CCCCCCCCCCCO)O3)O2)C(=O)O1` reads 0.6 nM. The result for `CCCCCCCC[C@@H](O)[C@H]1CC[C@H]([C@H]2CC[C@H]([C@H](O)CCCCCCCCCC[C@@H](O)CC3=C[C@H](C)OC3=O)O2)O1` reads 0.5 nM; that for `C[C@H]1C=C(CCCCCCCCCCC[C@@H](O)[C@H]2CC[C@H]([C@H]3CC[C@H]([C@H](O)CCCCCCCCCCCO)O3)O2)C(=O)O1`, 35 nM; that for `COCOCCCCCC[C@@H](O)[C@H]1CC[C@H]([C@H]2CC[C@H]([C@H](O)CCCCCCCCCC[C@@H](O)CC3=C[C@H](C)OC3=O)O2)O1`, 16 nM.

In turn, `CCCCCCCCCCC(O)C1CCC(C2CCC(C(O)CCCCCCCC[C@H](O)CC3=C[C@@H](C)OC3=O)O2)O1` (stereo partly specified) [ASIMICIN] displayed an IC50 of 8.8 nM. This IC50 is about 1.8-fold lower than that of the compound before.
